Assay results from patent US6423689B1, “Peptidyl calcium channel blockers” (Warner-Lambert Company, priority 1997, dated 2002).
One block for each compound: values may come before it.

Target: T1, N-type Ca2+ channels in IMR-32 cells (Homo sapiens, UniProt Q00975)
T1 construct: host or cells: IMR-32 cells, differentiated with dibutyryl cAMP and bromodeoxyuridine
Assay: Inhibition of N-type calcium flux in IMR-32 cells (Indo-1 fluorescence, nitrendipine present)
Format: cell-based
Settings: for IC50: IMR-32 cells, 5 μM nitrendipine, K+ depolarization; for inhibition at 1 µM / inhibition at 10 µM: IMR-32
Experimental: Measurement of N-type Ca^2+ Channel Blocking Potencies of Compounds in IMR-32 Cells Using the Fluorescent Ca^2+ Indicator Indo-1
IMR-32 cells are a human tumoral cell line of neural origin. […] Calcium flux into these cells may be induced by stimulation with elevated potassium concentrations. The L-channel component of calcium flux may be blocked by adding 5 μM nitrendipine. The remaining component of calcium entry into the IMR-32 cells is due to calcium flux through N-type calcium channels. Intracellular calcium concentrations are measured using the fluorescent calcium indicator Indo 1. The effect of drug concentration on calcium uptake is studied.
The IMR-32 cell line was obtained from the American Type Culture Collection (Rockville, Md.). Cells were grown in Eagle's Minimum Essential Medium with Eagle's salts supplemented with 10% fetal bovine serum, 2 mM L-Gln and antibiotic/antimycotic mixture (Gibco). […] After 7 to 13 days of differentiation, cells were detached using 0.5 mM EDTA and loaded with 5 μM Indo-1 acetoxymethyl ester (Molecular Probes, Eugene, OR) at […] for 45 minutes. Loaded cells were washed twice, resuspended (˜10^7 cells/mL) in assay buffer (10 mM HEPES/Tris pH 7.4 in Hank's Balanced Salt Solution without bicarbonate or phenol red containing 0.5% bovine serum albumin) and kept on ice until use. Fluorescence measurements were carried out in a Photon Technology International (PTI, South Brunswick, N.J.) Model RF-F3004 spectrofluorometer with dual emission monochromators using excitation at 350 nm and emission at 400 and 490 nm. The instrument was equipped with a thermostated cuvette holder with stirring capabilities as well as with a computer-controlled pump which allowed for reagent addition during measurement. Instrument control and data collection was done by PTI's OSCAR software running on an IBM compatible computer. […] Samples were incubated for 10 minutes at 30° C. and then aliquoted into three 10×10 mm disposable acrylic cuvettes. Emission signals at 400 and 490 nm were acquired from each cuvette at 30° C. for 50 seconds. At 20 seconds after the start of reading, cells were depolarized by the addition of 160 μL of stimulation solution (1M KCl, 68 mM CaCl2) to the cuvette via the computer-controlled pump. Ratio of dual emission signals (400 nm/490 nm), which is proportional to intracellular Ca^2+ concentration, was plotted against time, and the difference between maximal response after stimulation and basal value (before stimulation) was determined. Values obtained in this way were plotted as a function of drug concentration. IC50 values of test compounds were calculated by fitting a four-parameter logistic function to the data using the least squares method.

T1 sequence (Q00975 whole entry): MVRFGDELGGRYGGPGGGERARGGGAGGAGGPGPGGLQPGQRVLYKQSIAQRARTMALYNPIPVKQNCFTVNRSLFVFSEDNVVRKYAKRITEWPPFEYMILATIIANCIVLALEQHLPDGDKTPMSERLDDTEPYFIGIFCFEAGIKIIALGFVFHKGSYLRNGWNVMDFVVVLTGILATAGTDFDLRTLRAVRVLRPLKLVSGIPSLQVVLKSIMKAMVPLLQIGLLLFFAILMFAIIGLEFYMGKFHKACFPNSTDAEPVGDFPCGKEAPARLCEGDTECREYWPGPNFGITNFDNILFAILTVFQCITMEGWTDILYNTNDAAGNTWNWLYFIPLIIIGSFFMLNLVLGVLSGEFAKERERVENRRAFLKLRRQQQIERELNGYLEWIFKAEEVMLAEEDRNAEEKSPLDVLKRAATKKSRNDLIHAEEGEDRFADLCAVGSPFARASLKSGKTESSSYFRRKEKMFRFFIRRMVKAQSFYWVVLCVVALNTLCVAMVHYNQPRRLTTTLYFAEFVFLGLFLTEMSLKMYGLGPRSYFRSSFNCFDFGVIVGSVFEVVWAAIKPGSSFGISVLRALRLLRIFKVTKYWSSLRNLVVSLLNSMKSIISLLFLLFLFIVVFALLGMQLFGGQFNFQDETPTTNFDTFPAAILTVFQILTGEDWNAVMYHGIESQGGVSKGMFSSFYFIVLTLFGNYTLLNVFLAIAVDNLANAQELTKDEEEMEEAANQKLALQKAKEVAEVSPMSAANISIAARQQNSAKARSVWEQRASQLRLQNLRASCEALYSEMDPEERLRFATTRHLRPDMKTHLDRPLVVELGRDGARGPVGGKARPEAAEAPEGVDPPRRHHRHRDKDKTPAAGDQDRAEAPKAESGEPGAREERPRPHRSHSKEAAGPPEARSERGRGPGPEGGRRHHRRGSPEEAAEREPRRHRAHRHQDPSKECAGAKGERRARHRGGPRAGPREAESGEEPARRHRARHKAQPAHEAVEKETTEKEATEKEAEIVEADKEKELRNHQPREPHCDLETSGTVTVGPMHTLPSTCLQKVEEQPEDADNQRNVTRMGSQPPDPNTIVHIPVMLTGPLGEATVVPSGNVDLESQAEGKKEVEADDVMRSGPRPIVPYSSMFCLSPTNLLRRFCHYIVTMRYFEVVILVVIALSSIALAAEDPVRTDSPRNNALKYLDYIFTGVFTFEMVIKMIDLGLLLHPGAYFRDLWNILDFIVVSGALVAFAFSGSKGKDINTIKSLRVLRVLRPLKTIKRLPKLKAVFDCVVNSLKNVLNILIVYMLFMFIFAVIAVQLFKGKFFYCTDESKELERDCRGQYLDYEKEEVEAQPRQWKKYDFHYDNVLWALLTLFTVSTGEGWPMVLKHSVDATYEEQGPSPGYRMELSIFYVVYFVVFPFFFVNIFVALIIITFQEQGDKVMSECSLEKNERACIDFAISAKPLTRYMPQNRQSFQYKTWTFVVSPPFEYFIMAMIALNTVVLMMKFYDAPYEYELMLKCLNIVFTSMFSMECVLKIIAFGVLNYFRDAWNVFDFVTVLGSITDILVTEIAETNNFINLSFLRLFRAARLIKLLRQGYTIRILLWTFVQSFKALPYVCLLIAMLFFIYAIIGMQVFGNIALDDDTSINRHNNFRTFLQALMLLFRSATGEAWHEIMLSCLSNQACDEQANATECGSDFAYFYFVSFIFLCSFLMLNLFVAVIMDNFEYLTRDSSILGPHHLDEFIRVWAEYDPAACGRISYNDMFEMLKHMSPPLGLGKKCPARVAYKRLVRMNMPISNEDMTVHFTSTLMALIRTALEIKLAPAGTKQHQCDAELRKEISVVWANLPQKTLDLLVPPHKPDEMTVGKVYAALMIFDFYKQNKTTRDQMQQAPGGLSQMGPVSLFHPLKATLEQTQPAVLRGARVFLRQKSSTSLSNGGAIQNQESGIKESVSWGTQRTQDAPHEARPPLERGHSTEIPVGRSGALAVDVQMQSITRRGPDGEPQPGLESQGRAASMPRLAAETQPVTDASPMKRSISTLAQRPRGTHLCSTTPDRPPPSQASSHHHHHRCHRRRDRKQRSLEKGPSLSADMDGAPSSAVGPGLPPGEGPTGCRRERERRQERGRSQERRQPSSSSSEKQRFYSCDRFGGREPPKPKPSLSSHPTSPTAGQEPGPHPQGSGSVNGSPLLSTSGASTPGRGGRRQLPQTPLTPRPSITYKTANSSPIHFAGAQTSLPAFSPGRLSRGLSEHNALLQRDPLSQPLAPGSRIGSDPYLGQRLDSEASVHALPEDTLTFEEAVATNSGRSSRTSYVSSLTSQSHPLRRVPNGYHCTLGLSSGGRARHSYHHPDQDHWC
T1 sequence (P54289 25-956 partner limits assumed): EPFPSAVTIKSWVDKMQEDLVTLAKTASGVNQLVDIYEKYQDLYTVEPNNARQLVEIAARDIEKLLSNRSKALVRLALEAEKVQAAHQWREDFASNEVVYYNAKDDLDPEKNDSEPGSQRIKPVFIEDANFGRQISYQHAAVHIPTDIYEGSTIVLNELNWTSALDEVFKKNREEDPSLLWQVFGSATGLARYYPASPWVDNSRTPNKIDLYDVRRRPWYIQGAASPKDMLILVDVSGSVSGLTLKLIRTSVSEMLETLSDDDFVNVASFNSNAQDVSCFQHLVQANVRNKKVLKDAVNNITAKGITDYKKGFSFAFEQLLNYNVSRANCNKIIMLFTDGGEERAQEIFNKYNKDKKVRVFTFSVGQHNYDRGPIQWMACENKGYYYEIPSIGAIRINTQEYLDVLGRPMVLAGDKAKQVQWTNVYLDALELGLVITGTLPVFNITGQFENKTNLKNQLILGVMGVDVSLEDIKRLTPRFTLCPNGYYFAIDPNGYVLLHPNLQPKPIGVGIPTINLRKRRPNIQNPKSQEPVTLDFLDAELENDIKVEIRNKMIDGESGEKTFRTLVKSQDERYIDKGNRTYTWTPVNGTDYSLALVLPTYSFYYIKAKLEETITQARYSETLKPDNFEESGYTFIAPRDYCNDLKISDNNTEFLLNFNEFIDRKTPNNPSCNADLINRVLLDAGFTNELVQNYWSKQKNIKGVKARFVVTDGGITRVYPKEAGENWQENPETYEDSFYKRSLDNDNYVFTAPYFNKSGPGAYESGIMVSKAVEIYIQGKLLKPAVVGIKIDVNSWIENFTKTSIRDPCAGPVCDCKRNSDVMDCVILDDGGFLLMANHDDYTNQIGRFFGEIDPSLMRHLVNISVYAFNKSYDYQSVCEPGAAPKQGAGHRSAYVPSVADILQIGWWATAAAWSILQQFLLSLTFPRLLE
T1 sequence (P54289 957-1103 partner limits assumed): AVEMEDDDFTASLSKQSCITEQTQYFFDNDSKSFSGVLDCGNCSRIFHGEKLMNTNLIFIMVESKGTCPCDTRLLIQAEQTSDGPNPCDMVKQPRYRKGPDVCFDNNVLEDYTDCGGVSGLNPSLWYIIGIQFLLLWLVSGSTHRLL
T1 sequence (P54284 whole entry partner): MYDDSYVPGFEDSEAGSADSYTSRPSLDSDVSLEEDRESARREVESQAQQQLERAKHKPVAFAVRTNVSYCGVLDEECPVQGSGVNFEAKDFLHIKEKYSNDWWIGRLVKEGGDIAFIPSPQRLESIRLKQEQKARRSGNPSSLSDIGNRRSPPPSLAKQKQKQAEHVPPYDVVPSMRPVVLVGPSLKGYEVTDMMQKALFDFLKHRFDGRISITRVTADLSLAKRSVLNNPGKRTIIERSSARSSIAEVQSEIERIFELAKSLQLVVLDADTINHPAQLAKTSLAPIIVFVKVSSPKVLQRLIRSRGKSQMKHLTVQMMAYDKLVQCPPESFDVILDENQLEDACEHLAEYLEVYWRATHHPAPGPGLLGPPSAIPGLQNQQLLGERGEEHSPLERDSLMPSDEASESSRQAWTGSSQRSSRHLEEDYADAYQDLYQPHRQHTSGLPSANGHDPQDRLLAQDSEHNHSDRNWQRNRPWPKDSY

Structure (SMILES): COc1cccc(C(=O)N[C@@H](CC(C)C)C(=O)N[C@@H](Cc2ccc(OCc3ccccc3)cc2)C(=O)OC(C)(C)C)c1 (relative stereo) [Example 96, [S-(R*,R*)]-3-(4-Benzyloxy-phenyl)-2-[2-(3-methoxy-benzoylamino)-4-methyl-pentanoylamino]-propionic acid tert-butyl ester]
Inhibition of Calcium Flux in IMR-32 Cells % Inhibition at 1 μM: 33%

Structure (SMILES): CC(C)C[C@H](NC(=O)N1CCCCCC1)C(=O)N[C@@H](Cc1ccc(OCc2ccccc2)cc1)C(=O)N1CCOCC1 [Example 166, [S-(R*,R*)]-Azepane-1-carboxylic acid {1-[1-(4-benzyloxy-benzyl)-2-morpholin-4-yl-2-oxo-ethylcarbamoyl]-3-methyl-butyl}-amide]
IC50: 1.3 µM

Structure (SMILES): CC(C)C[C@H](NS(=O)(=O)c1ccc2cccnc2c1)C(=O)N[C@@H](Cc1ccc(OCc2ccccc2)cc1)C(=O)OC(C)(C)C (relative stereo) [Example 109, [S-(R*,R*)]-3-(4-Benzyloxy-phenyl)-2-[4-methyl-2-(quinoline-7-sulfonylamino)-pentanoylamino]-propionic acid tert-butyl ester]
Inhibition of Calcium Flux in IMR-32 Cells % Inhibition at 10 μM: 56%

Structure (SMILES): O=C(NCCN1CCCCC1)[C@H](Cc1ccc(OCc2ccccc2)cc1)NC(=O)[C@H](Cc1ccc(O)cc1)NC(=O)N1CCCCCC1 [Example 156, [S-(R*,R*)]-Azepane-1-carboxylic acid [1-[2-(4-benzyloxy-phenyl)-1-(2-piperidin-1-ylethylcarbamoyl)-ethylcarbamoyl]-2-(4-hydroxy-phenyl)-ethyl]-amide]
IC50: 5.3 µM

Structure (SMILES): COc1ccc(C(=O)N[C@@H](CC(C)C)C(=O)N[C@@H](Cc2ccc(OCc3ccccc3)cc2)C(=O)OC(C)(C)C)cc1 (relative stereo) [Example 95, [S-(R*,R*)]-3-(4-Benzyloxy-phenyl)-2-[2-(4-methoxy-benzoylamino)-4-methyl-pentanoylamino]-propionic acid tert-butyl ester]
Inhibition of Calcium Flux in IMR-32 Cells % Inhibition at 1 μM: 27%

Structure (SMILES): CC(C)C[C@H](NC(=O)N1CCCCCC1)C(=O)N[C@@H](Cc1ccc(OCc2ccccc2)cc1)C(=O)NCCN1CCCC1 [Example 181, [S-(R*,R*)]-Azepane-1-carboxylic acid {1-[2-(4-benzyloxy-phenyl)-1-(2-pyrrolidin-1-ylethylcarbamoyl)-ethylcarbamoyl]3-methyl-butyl}-amide]
IC50: 2.8 µM

Structure (SMILES): CC(C)C[C@H](NC(=O)Nc1cccc2ccccc12)C(=O)N[C@@H](Cc1ccc(OCc2ccccc2)cc1)C(=O)OC(C)(C)C (relative stereo) [Example 79, [S-(R*,R*)]-3-(4-Benzyloxy-phenyl)-2-[4-methyl-2-(3-naphthalen-1-yl-ureido)-pentanoylamino]-propionic acid tert-butyl ester]
Inhibition of Calcium Flux in IMR-32 Cells % Inhibition at 1 μM: 23%

Structure (SMILES): CC(C)C[C@H](NC(=O)CCc1c[nH]c2ccccc12)C(=O)N[C@@H](Cc1ccc(OCc2ccccc2)cc1)C(=O)OC(C)(C)C (relative stereo) [Example 120, [S-(R*,R*)]-3-(4-Benzyloxy-phenyl)-2-[2-(3-1H-indol-3-yl-propionylamino)-4-methyl-pentanoylamino]-propionic acid tert-butyl ester]
Inhibition of Calcium Flux in IMR-32 Cells % Inhibition at 10 μM: 65%

Structure (SMILES): CC(C)C[C@H](NC(=O)N1CCCCCC1)C(=O)N[C@@H](Cc1ccc(OCc2ccccc2)cc1)C(=O)Nc1ccc(Oc2ccccc2)cc1 [Example 213, [S-(R*,R*)]-Azepane-1-carboxylic acid {1-[2-(4-benzyloxy-phenyl)-1-(4-phenoxy-phenylcarbamoyl)-ethylcarbamoyl]-3-methyl-butyl}-amide]
inhibition at 1 µM: 30%
inhibition at 10 µM: 33%
IC50: 2.4 µM

Structure (SMILES): CC(C)CC(NC(=O)N1CCCCCC1)C(=O)NC(Cc1ccc(OCc2ccccc2)cc1)C(=O)NC(CO)C(O)c1ccccc1 (stereo not drawn) [Example 227, [S-(R*,R*)]-Azepane-1-carboxylic acid {1-[2-(4-benzyloxy-phenyl)-1-(2-hydroxy-1-hydroxymethyl-2-phenyl-ethylcarbamoyl)-ethylcarbamoyl]-3-methyl-butyl}-amide]
Inhibition of Calcium Flux in IMR-32 Cells % Inhibition at 1 μM: 19%
Inhibition of Calcium Flux in IMR-32 Cells % Inhibition at 10 μM: 86%

Structure (SMILES): CC(C)C[C@H](NC(=O)N1CCCCCC1)C(=O)N[C@@H](Cc1ccc(OCc2ccccc2)cc1)C(=O)Nc1cccc(C(F)(F)F)c1 [Example 214, [S-(R*,R*)]-Azepane-1-carboxylic acid {1-[2-(4-benzyloxy-phenyl)-1-(3-trifluoromethyl-phenylcarbamoyl)-ethylcarbamoyl]-3-methyl-butyl}-amide]
inhibition at 1 µM: 42%
inhibition at 10 µM: 51%
IC50: 1.4 µM

Structure (SMILES): CC(C)CC(NC(=O)N1CCCCCC1)C(=O)NC(Cc1ccc(OCc2ccccc2)cc1)C(=O)N1CCCC(O)C1 (stereo not drawn) [Example 234, Azepane-1-carboxylic acid {1-[1-(4-benzyloxy-benzyl)-2-(3-hydroxy-piperidin-1-yl)-2-oxo-ethylcarbamoyl]-3-methyl-butyl}-amide]
inhibition at 1 µM: 32%
inhibition at 10 µM: 67%

Structure (SMILES): CC(C)C[C@H](NC(=O)N1CCCCCC1)C(=O)N[C@@H](Cc1ccc(OCc2ccc(C#N)cc2)cc1)C(=O)OC(C)(C)C [Example 27, [S-(R*,R*)]-2-{2-[(Azepane-1-carbonyl)-amino]-4-methyl-pentanoylamino}-3-[4-(4-cyano-benzyloxy)-phenyl]-propionic acid tert-butyl ester]
inhibition at 1 µM: 51%
inhibition at 10 µM: 92%
IC50: 0.81 µM

Structure (SMILES): CC(C)C[C@H](NC(=O)N1CCOCC1)C(=O)N[C@@H](Cc1ccc(OCc2ccccc2)cc1)C(=O)OC(C)(C)C (relative stereo) [Example 34, [S-(R*,R*)]-3-(4-Benzyloxy-phenyl)-2(S)-{4-methyl-2(S)-[(morpholine-4-carbonyl)-amino]-pentanoylamino}-propionic acid tert-butyl ester]
Inhibition of Calcium Flux in IMR-32 Cells % Inhibition at 1 μM: 29%
Inhibition of Calcium Flux in IMR-32 Cells % Inhibition at 10 μM: 78%

Results, then the compound that gave them:

Inhibition of Calcium Flux in IMR-32 Cells % Inhibition at 1 μM: 31%
Structure (SMILES): COc1ccc(NC(=O)N[C@@H](CC(C)C)C(=O)N[C@@H](Cc2ccc(OCc3ccccc3)cc2)C(=O)OC(C)(C)C)cc1 (relative stereo) [Example 68, [S-(R*,R*)]-3-(4-Benzyloxy-phenyl)-2-{2-[3-(4-methoxy-phenyl)-ureido]-4-methyl-pentanoylamino}-propionic acid tert-butyl ester]

Inhibition of Calcium Flux in IMR-32 Cells % Inhibition at 1 μM: 31%
Structure (SMILES): CC(C)C[C@H](NC(=O)Nc1ccc(F)cc1F)C(=O)N[C@@H](Cc1ccc(OCc2ccccc2)cc1)C(=O)OC(C)(C)C (relative stereo) [Example 69, [S-(R*,R*)]-3-(4-Benzyloxy-phenyl)-2-{2-[3-(2,4-difluoro-phenyl)-ureido]-4-methyl-pentanoylamino}-propionic acid tert-butyl ester]

inhibition at 1 µM: 63%
inhibition at 10 µM: 98%
IC50: 0.72 µM
Structure (SMILES): CC(C)[C@H](NC(=O)N1CCCCCC1)C(=O)N[C@@H](Cc1ccc(OCc2ccccc2)cc1)C(=O)OC(C)(C)C [Example 6, [S-(R*,R*)]-2-{2-[(Azepane-1-carbonyl)-amino]-3-methyl-butyrylamino}-3-(4-benzyloxy-phenyl)-propionic acid tert-butyl ester]

Inhibition of Calcium Flux in IMR-32 Cells % Inhibition at 10 μM: 83%
Structure (SMILES): CC(C)C[C@H](NC(=O)Cc1c[nH]c2ccccc12)C(=O)C[C@H](Cc1ccc(OCc2ccccc2)cc1)C(=O)OC(C)(C)C (relative stereo) [Example 113, [S-(R*,R*)]-2-(4-Benzyloxy-benzyl)-5-(2-1H-indol-3-yl-acetylamino)-7-methyl-4-oxo-octanoic acid tert-butyl ester]

Inhibition of Calcium Flux in IMR-32 Cells % Inhibition at 1 μM: 63%
Inhibition of Calcium Flux in IMR-32 Cells % Inhibition at 10 μM: 86%
IC50: 0.75 µM
Structure (SMILES): CC(C)C[C@H](NC(=O)N1CCCCCC1)C(=O)N[C@@H](Cc1ccc(OCc2ccccc2)cc1)C(=O)N1CCN(c2ccc(F)cc2)CC1 (relative stereo) [Example 240, [S-(R*,R*)]-Azepane-1-carboxylic acid (1-{1-(4-benzyloxy-benzyl)-2-[4-(4-fluoro-phenyl)-piperazin-1-yl]-2-oxo-ethylcarbamoyl}-3-methyl-butyl)-amide]

IC50: 1.4 µM
Structure (SMILES): CC(C)C[C@H](NC(=O)N1CCCCCC1)C(=O)N[C@@H](Cc1ccc(OCc2ccccc2)cc1)C(=O)N1CCC[C@H]1CN1CCCC1 [Example 179, Azepane-1-carboxylic acid {(S)-1-[(S)-1-(4-benzyloxy-benzyl)-2-oxo-2-[(S)-2-pyrrolidin-1-ylmethyl-pyrrolidin-1-yl]-ethylcarbamoyl]-3-methyl-butyl}-amide]
